Data on four molecules can be found in patent US11112409B2, “Systems and compositions for diagnosing pathogenic fungal infection and methods of using the same” (priority 2016, dated 2021).

Experiment [1] deals with recombinant Sap6. The experiment can be described thus: Internally quenched fluorogenic substrate activity assay with recombinant Sap6. The format is biochemical, C. albicans. Particulars: 2 μg/mL recombinant Sap, 10 μM substrate, pH 5.5. Here is the method: Specific activity was determined with 2 μg/mL recombinant Saps and the substrates […] (10 μM, SEQ ID NO: 22), IYRnHVQL (25 μM; SEQ ID NO: 24), WPSnNKVG (25 μM; SEQ ID NO: 25), and TFSYnRWP (10 μM; SEQ ID NO: 23). RFU was converted to moles of product formation using a correction factor experimentally determined for each substrate.
For each protease, two 8-mer peptide sequences containing P4-P4′ residues from Sap5- or Sap6-favored cleavages were selected for incorporation into internally quenched fluorogenic peptides. The fluorogenic probes were synthesized bearing either a 5-carboxyfluorescein or 7-methoxycoumarin fluorophore with a corresponding quencher positioned at opposing termini such that peptide cleavage yields a fluorescence signal.
Activity assays with internally quenched fluorogenic substrates were performed up to one hour in black 96-well round bottom plates (Costar) using a BioTek Synergy H4 Hybrid Multi-Mode Microplate Reader set to 37° C. The following excitation/emission wavelengths were used: 328 nm/393 nm (gain 96) for MCA and Ex/Em of 485 nm/538 nm (gain 94) for 5-FAM. RFU was corrected to moles of product formation as appropriate using a conversion factor calculated from the total proteolytic hydrolysis of each substrate. Activity assays with conditioned media were performed with 10 μM substrate and either 20 μg/mL protein sample for […] […]

The subject of experiment [2] is pepstatin-sensitive protease activity in rat serum. The experiment can be described thus: Sap6 substrate cleavage in blood/serum from rat biofilm catheter and IV infection models. The format is biochemical. Here is the method: FIG. 16 depicts the detection of pepstatin-sensitive activity in serum from C. albicans biofilm rat catheter and disseminated infection models. Detection of pepstatin-sensitive protease activity with the TFSYnRWP (SEQ ID NO: 23) fluorogenic probe in rat serum samples. Blood was collected both directly from C. albicans biofilm-infected catheters and peripherally 48 hours post biofilm infection (N=3 rats). Blood was also sampled peripherally 24 hours post IV infection with C. albicans (10^6 CFUs) (N=3 rats). Uninfected rats were used as a healthy control (N=3 rats). Activity assays were carried out using serum samples that had been diluted 25-fold into pH 4.0 buffer.
FIG. 22 depicts detection of infection-specific aspartyl protease activity in serum from a rat catheter biofilm model using the Sap6-cleavable probe. Serum was collected both directly from the biofilm-infected catheter, peripherally from the rat jugular vein, and from the jugular vein of an uninfected control rat (n=2).
To provide validation of the protease activity-based diagnostic approach in a rat biofilm catheter model, blood was directly sampled from (i) the catheters of rats with introduced C. albicans biofilms, (ii) peripherally from the same rats, and, (iii) following IV infection, and (iv) as a control, from rats not exposed to C. albicans.

Experiment [3] relates to conditioned media from C. albicans biofilm and planktonic cultures. The experiment can be described thus: Fluorogenic substrate cleavage in biofilm and planktonic conditioned media. The class given is biochemical. Particulars: for preferential cleavage by biofilm culture medium (B/P): biofilm versus planktonic conditioned media. Here is the method: Activity assays with internally quenched fluorogenic substrates were performed up to one hour in black 96-well round bottom plates (Costar) using a BioTek Synergy H4 Hybrid Multi-Mode Microplate Reader set to 37° C. The following excitation/emission wavelengths were used: 328 nm/393 nm (gain 96) for MCA and Ex/Em of 485 nm/538 nm (gain 94) for 5-FAM. RFU was corrected to moles of product formation as appropriate using a conversion factor calculated from the total proteolytic hydrolysis of each substrate. Activity assays with conditioned media were performed with 10 μM substrate and either 20 μg/mL protein sample for […] (SEQ ID NO: 22) or 10 μg/mL protein sample for TFSYnRWP (SEQ ID NO: 23). For assays with recombinant Saps, 2 μg/mL Sap5 and Sap6 were used with the following substrate concentrations: […] (10 μM; SEQ ID NO: 22), IYRnHVQL (25 μM; SEQ ID NO: 24), WPSnNKVG (25 μM; SEQ ID NO: 25), and TFSYnRWP (10 μM; SEQ ID NO: 23).

The subject of experiment [4] is aspartyl protease activity in conditioned media. Description: Pepstatin pretreatment of conditioned media, fluorogenic substrate cleavage. The format is biochemical, C. albicans. Conditions: 10 μM pepstatin, VFILWRTE and TFSYnRWP substrates. The procedure: FIGS. 4A-4B depict probe activity in biofilm and planktonic conditioned media following pepstatin A pretreatment and in conditioned media from sap5Δ/Δ, sap6Δ/Δ, and sap5/6ΔΔ/ΔΔ deletion strains. […] Matched comparison to wild-type (SN425) conditioned media is provided (FIG. 12).
To further confirm probe selectivity for the target proteases, conditioned media preparations were also assayed from sap5Δ/Δ and sap6Δ/Δ single deletion mutant strains and a sap5/6ΔΔ/ΔΔ double deletion mutant strain (FIG. 4B). […] Indeed, shotgun proteomics analysis on matched biofilm conditioned media preparations from the wild-type reference and mutant strains confirmed an increase in Sap6 levels associated with the sap5Δ/Δ mutant strain. In contrast, there was no observable increase in Sap5 levels associated with the sap6Δ/Δ mutant strain in agreement with the activity results (Table 5). We note that substrate cleavage in the sap5/6ΔΔ/ΔΔ double deletion mutant strain indicates proteolytic activity from additional proteases that are in lower abundance, possibly reflecting compensation for loss of SAP5/SAP6.

In experiment [5] the test system is Kex2. The experiment can be described thus: MSP-MS profiling of conditioned media with inhibitor pretreatment, cleavage sites assigned to Kex2. The class given is biochemical, C. albicans. Particulars: 1 mM EDTA or 10 μM pepstatin A. An excerpt: FIG. 8 depicts global substrate specificity profiling of recombinant Kex2 from Saccharomyces cerevisiae. (top) Time-dependent generation of cleavages following dibasic (P2-P1) K/R-R residues in the MSP-MS library for recombinant Kex2 and C. albicans wild-type (SN425) conditioned media from 24-hour biofilm and planktonic cultures. Cleavage sites assigned to Kex2 in the conditioned media profiles were sensitive to EDTA and insensitive to pepstatin treatments. […] This is illustrated in the differential cleavage pattern of an example MSP-MS peptide.

Entries after “also recorded” stand apart in the source; their conditions may differ. Square brackets hold non-standard residues; d marks the D form. Ends that are not written are not given here. Peptide text beside a SMILES is read from it. * marks the point of attachment. Lys(DNP) = Lys carrying DNP quencher; Sta = CC(C)C[C@H](N)[C@@H](O)CC(=O)O; Isovaleryl = CC(C)CC(=O)*; Nle = CCCC[C@H](N)C(=O)O

As for “DArg-DArg-Lys(MCA)-Thr-Phe-Ser-Tyr-Nle-Arg-Trp-Pro-Lys(DNP) ({dR-dR-Lys(MCA)}-TFSY[Nle]RWP-{Lys(DNP)}) [TFSYnRWP, internally quenched fluorogenic substrate for Sap6]”, the “specific activity and selectivity for Sap6” value in experiment [1] was “highest specific activity and selectivity; also recorded: high specific activity and selectivity”. Also, the “substrate cleavage in blood harvested from infected rats” value in experiment [2] (C. albicans biofilm catheter or IV infected rats) is “readily detected”. In addition, the “cleavage activity in uninfected rats” value in experiment [2] (rats not exposed to C. albicans) was “absent”. For the same molecule, in experiment [3], the “preferential cleavage by biofilm culture medium (B/P)” value was 4.4 fold. Moreover, the “substrate activity in sap5Δ/Δ deletion strain conditioned media” value in experiment [3] (sap5Δ/Δ single deletion strain) is on record as “increased”. Also, the “substrate cleavage, biofilm versus planktonic conditioned media” value in experiment [3] (wild-type, 24-hour conditioned media, 10 μM substrate) is reported as “higher biofilm activity”.
“VFILWRTE (also: CPQ2 quencher, place not given here, 5-FAM, place not given here, DArg-DArg-NH2, place not given here) [internally quenched fluorogenic substrate for Sap5]”: the “preferential cleavage by biofilm culture medium (B/P)” value in experiment [3] turned out to be 10 fold.
Turning to `CC(C)CC(=O)N[C@H](C(=O)N[C@H](C(=O)N[C@@H](CC(C)C)[C@@H](O)CC(=O)N[C@@H](C)C(=O)N[C@@H](CC(C)C)[C@@H](O)CC(=O)O)C(C)C)C(C)C` [Pepstatin A] (Isovaleryl-VV[Sta]A[Sta]-OH), the “effect of pepstatin pretreatment on TFSYnRWP cleavage in blood of infected rats” value in experiment [2] (pepstatin pretreatment) is listed as “significantly reduced”. The “effect of pepstatin pretreatment on substrate cleavage” value in experiment [4] was “significant reduction in substrate cleavage”. Moreover, the “sensitivity of Kex2-assigned cleavage sites to inhibitor treatment” value in experiment [5] is “insensitive”.
Take `O=C(O)CN(CCN(CC(=O)O)CC(=O)O)CC(=O)O` [EDTA]: the “sensitivity of Kex2-assigned cleavage sites to inhibitor treatment” value in experiment [5] is reported as “sensitive”.
